3 compounds from publication PMC9856672, “SGC-CAMKK2-1: A Chemical Probe for CAMKK2” (Cells, 2023) can be followed below.

Assay [1] deals with T1, NLuc-CAMKK2 (kinase domain) in HEK293 cells (Homo sapiens, UniProt Q96RR4).
T1 construct: this assay utilizes a nanoluciferase (NL) fused to the kinase domain of CAMKK2; expressed in transfected cells; host or cells: HEK293
As to the kind of experiment: CAMKK2 NanoBRET in-cell target engagement assay. The settings on record: HEK293 cells transiently transfected with NLuc-CAMKK2. In kind it is cell-based.
Description: CAMKK2 NanoBRET assay: To quantify the cellular activity of these inhibitors we developed a CAMKK2 NanoBRET target engagement assay [51, 52]. Briefly this assay utilizes a nanoluciferase (NL) fused to the kinase domain of CAMKK2. This NL kinase fusion is then transiently transfected into HEK293 cells and after 24 h, tracer is added to the cells. When the tracer and the NL-CAMKK2 fusion come into proximity they create a BRET signal that can be competed in a dose-dependent manner by the addition of cell-penetrant CAMKK2 inhibitors.
To evaluate this, we developed a NanoBRET in-cell target engagement assay. For this assay, the CAMKK2 kinase domain fused with a Nanoluciferase (NLuc) tag is transiently transfected into HEK293 cells. After 24 h, a heterobifunctional molecule that consists of an inhibitor that binds to CAMKK2 linked to a BODIPY dye is added to the cells. When the inhibitor–dye hybrid binds to the kinase, the proximity to the NLuc fused to CAMKK2 creates a BRET signal. This signal can then be competed away in a dose-dependent fashion with free inhibitor.

A further assay concerns the target T2, CSNK1E (Homo sapiens, UniProt P49674).
T2 construct: purchased Eurofins DiscoverX KINOMEscan
As to the kind of experiment: KINOMEscan 1 μM, CSNK1E. Particulars: 1000 nM; Entrez CSNK1E; read-out: Percent Control. Format: binding. An excerpt: (§1) Supplement cells-12-00287-s001.zip/File S2. KinomeScan data for the CAMKK2 probe and negative control.xlsx, sheet "SGC-CAMKK2-1" | column: Percent Control

A further assay deals with T3, MST4 (Homo sapiens, UniProt Q9P289).
T3 construct: purchased Eurofins DiscoverX KINOMEscan
As to the kind of experiment: KINOMEscan 1 μM, MST4. The settings on record: 1000 nM; Entrez MST4; read-out: Percent Control. Format: binding.
Description: as §1

The next assay deals with FLT3(ITD,F691L). As to the kind of experiment: KINOMEscan 1 μM, FLT3(ITD,F691L). In kind it is binding, human. Particulars: 1000 nM; Entrez FLT3.
Description: as §1

The next assay concerns the target T4, KIT(L576P) (Homo sapiens, UniProt P10721, L576P).
T4 construct: purchased Eurofins DiscoverX KINOMEscan
The assay can be described thus: KINOMEscan 1 μM, KIT(L576P). In kind it is binding. Particulars: 1000 nM; Entrez KIT; read-out: Percent Control.
Description: as §1

The next assay has as its target T5, RIOK2 (Homo sapiens, UniProt Q9BVS4).
T5 construct: purchased Eurofins DiscoverX KINOMEscan
The assay can be described thus: DiscoverX KINOMEscan binding assay at 1 μM, RIOK2. Particulars: Compound Concentration 1000 nM, read-out: Percent Control.
Description: as §1

A further assay has as its target T6, SRPK2 (Homo sapiens, UniProt P78362).
T6 construct: purchased Eurofins DiscoverX KINOMEscan
As to the kind of experiment: DiscoverX KINOMEscan binding assay at 1 μM, SRPK2. Particulars: Compound Concentration 1000 nM, read-out: Percent Control.
Description: as §1

The target in the next assay is T7, MEK2 (Homo sapiens, UniProt P36507).
T7 construct: purchased Eurofins DiscoverX KINOMEscan
The assay can be described thus: KINOMEscan 1 μM, MEK2. Particulars: 1000 nM; Entrez MAP2K2; read-out: Percent Control. In kind it is binding.
Description: as §1

A further assay deals with T8, RET(M918T) (Homo sapiens, UniProt P07949, M918T).
T8 construct: purchased Eurofins DiscoverX KINOMEscan
The assay can be described thus: DiscoverX KINOMEscan binding assay at 1 μM, RET(M918T). The settings on record: Compound Concentration 1000 nM, read-out: Percent Control.
Description: as §1

In another assay the target is T9, ACVR2A (Homo sapiens, UniProt P27037).
T9 construct: purchased Eurofins DiscoverX KINOMEscan
As to the kind of experiment: KINOMEscan 1 μM, ACVR2A. In kind it is binding. The settings on record: 1000 nM; Entrez ACVR2A; read-out: Percent Control.
Description: as §1

Assay [2] deals with T10, RPS6KA4(Kin.Dom.2-C-terminal) (Homo sapiens, UniProt O75676).
T10 construct: RPS6KA4(Kin.Dom.2-C-terminal); purchased Eurofins DiscoverX KINOMEscan
The assay can be described thus: DiscoverX KINOMEscan binding assay at 1 μM, RPS6KA4(Kin.Dom.2-C-terminal). Particulars: Compound Concentration 1000 nM, read-out: Percent Control.
Description: as §1

The next assay has as its target T11, ULK3 (Homo sapiens, UniProt Q6PHR2).
T11 construct: purchased Eurofins DiscoverX KINOMEscan
As to the kind of experiment: DiscoverX KINOMEscan binding assay at 1 μM, ULK3. Particulars: Compound Concentration 1000 nM, read-out: Percent Control.
Description: as §1

Assay [3] deals with T12, PRKCH (Homo sapiens, UniProt P24723).
T12 construct: purchased Eurofins DiscoverX KINOMEscan
T12 sequence (P24723 whole entry): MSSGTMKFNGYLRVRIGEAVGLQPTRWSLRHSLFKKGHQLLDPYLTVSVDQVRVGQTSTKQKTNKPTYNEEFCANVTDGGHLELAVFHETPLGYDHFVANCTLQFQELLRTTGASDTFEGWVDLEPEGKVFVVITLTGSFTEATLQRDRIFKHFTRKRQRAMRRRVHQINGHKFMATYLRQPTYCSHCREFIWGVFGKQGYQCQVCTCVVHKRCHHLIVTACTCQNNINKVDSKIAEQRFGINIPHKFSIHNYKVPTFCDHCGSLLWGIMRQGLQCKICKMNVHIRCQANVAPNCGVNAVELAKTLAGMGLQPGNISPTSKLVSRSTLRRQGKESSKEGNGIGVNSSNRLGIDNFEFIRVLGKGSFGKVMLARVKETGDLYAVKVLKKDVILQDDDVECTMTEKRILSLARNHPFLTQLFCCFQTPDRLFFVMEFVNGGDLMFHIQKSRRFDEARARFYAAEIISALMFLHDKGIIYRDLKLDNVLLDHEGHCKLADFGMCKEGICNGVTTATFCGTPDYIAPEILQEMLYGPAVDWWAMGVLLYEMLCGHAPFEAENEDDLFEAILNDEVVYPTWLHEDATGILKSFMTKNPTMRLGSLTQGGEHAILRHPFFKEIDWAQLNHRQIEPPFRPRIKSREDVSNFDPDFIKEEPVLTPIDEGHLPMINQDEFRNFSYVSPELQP
As to the kind of experiment: DiscoverX KINOMEscan binding assay at 1 μM, PRKCH. The settings on record: Compound Concentration 1000 nM, read-out: Percent Control.
Description: as §1

In assay [4] the target is T13, ABL1(T315I)-nonphosphorylated (Homo sapiens, UniProt P00519, T315I).
T13 construct: purchased Eurofins DiscoverX KINOMEscan
The assay can be described thus: KINOMEscan 1 μM, ABL1(T315I)-nonphosphorylated. Format: binding. Particulars: 1000 nM; Entrez ABL1; read-out: Percent Control.
Description: as §1

In the next assay the target is T14, ROCK1 (Homo sapiens, UniProt Q13464).
T14 construct: purchased Eurofins DiscoverX KINOMEscan
As to the kind of experiment: DiscoverX KINOMEscan binding assay at 1 μM, ROCK1. The settings on record: Compound Concentration 1000 nM, read-out: Percent Control.
Description: as §1

The next assay deals with T15, BMPR1A (Homo sapiens, UniProt P36894).
T15 construct: purchased Eurofins DiscoverX KINOMEscan
As to the kind of experiment: KINOMEscan 1 μM, BMPR1A. The settings on record: 1000 nM; Entrez BMPR1A; read-out: Percent Control. Format: binding.
Description: as §1

For the next assay, the target named is T16, YES (Homo sapiens, UniProt P07947).
T16 construct: purchased Eurofins DiscoverX KINOMEscan
As to the kind of experiment: DiscoverX KINOMEscan binding assay at 1 μM, YES. Particulars: YES (YES1); Compound Concentration 1000 nM; read-out: Percent Control.
Description: as §1

A further assay concerns FLT3(ITD,D835V). The assay can be described thus: KINOMEscan 1 μM, FLT3(ITD,D835V). In kind it is binding, human. Particulars: 1000 nM; Entrez FLT3.
Description: as §1

In another assay the target is T17, CSNK1G3 (Homo sapiens, UniProt Q9Y6M4).
T17 construct: purchased Eurofins DiscoverX KINOMEscan
As to the kind of experiment: KINOMEscan 1 μM, CSNK1G3. In kind it is binding. The settings on record: 1000 nM; Entrez CSNK1G3; read-out: Percent Control.
Description: as §1

The target of the next assay is T18, TAOK3 (Homo sapiens, UniProt Q9H2K8).
T18 construct: purchased Eurofins DiscoverX KINOMEscan
The assay can be described thus: KINOMEscan 1 μM, TAOK3. The settings on record: 1000 nM; Entrez TAOK3; read-out: Percent Control. In kind it is binding.
Description: as §1

The next assay concerns the target T19, TYRO3 (Homo sapiens, UniProt Q06418).
T19 construct: purchased Eurofins DiscoverX KINOMEscan
As to the kind of experiment: DiscoverX KINOMEscan binding assay at 1 μM, TYRO3. The settings on record: Compound Concentration 1000 nM, read-out: Percent Control.
Description: as §1

The target in the next assay is T20, SIK2 (Homo sapiens, UniProt Q9H0K1).
T20 construct: purchased Eurofins DiscoverX KINOMEscan
T20 sequence (Q9H0K1 whole entry): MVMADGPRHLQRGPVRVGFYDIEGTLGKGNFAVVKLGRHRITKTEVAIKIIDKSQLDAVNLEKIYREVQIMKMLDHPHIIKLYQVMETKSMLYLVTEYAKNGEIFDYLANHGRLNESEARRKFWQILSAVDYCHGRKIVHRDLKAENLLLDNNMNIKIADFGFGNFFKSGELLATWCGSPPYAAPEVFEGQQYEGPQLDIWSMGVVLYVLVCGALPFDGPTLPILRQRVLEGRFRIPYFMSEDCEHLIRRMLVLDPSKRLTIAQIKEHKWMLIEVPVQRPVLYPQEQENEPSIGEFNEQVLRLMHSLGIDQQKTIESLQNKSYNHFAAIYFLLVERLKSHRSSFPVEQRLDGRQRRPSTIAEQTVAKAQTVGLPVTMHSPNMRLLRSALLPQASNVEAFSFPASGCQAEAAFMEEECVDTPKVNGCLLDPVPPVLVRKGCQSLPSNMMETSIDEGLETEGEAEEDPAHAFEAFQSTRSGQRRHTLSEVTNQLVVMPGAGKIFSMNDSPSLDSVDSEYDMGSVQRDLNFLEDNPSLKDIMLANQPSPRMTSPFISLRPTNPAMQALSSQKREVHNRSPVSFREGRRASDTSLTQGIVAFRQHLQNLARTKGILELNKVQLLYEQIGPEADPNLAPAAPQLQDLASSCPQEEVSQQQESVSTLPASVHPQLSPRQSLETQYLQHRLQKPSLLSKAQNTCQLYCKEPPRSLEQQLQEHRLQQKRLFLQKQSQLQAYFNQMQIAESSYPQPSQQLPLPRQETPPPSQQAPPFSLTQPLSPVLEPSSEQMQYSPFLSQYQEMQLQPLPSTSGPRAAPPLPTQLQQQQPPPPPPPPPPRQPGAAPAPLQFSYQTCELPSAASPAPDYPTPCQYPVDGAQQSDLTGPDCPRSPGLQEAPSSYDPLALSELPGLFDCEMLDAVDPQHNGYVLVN
The assay can be described thus: KINOMEscan 1 μM, SIK2. Particulars: 1000 nM; Entrez SIK2; read-out: Percent Control. In kind it is binding.
Description: as §1

Another assay addresses T21, FLT3(D835V) (Homo sapiens, UniProt P36888, D835V).
T21 construct: purchased Eurofins DiscoverX KINOMEscan
As to the kind of experiment: KINOMEscan 1 μM, FLT3(D835V). Format: binding. Particulars: 1000 nM; Entrez FLT3; read-out: Percent Control.
Description: as §1

Another assay has as its target T22, TEC (Homo sapiens, UniProt P42680).
T22 construct: purchased Eurofins DiscoverX KINOMEscan
As to the kind of experiment: KINOMEscan at 1 μM, TEC. Format: binding. The settings on record: 1000 nM, read-out: Percent Control. An excerpt:
(§2) Supplement cells-12-00287-s001.zip/File S2. KinomeScan data for the CAMKK2 probe and negative control.xlsx, sheet "SGC-CAMKK2-1N" | column: Percent Control

For the next assay, the target named is T23, NDR2 (Homo sapiens, UniProt Q9Y2H1).
T23 construct: purchased Eurofins DiscoverX KINOMEscan
As to the kind of experiment: KINOMEscan at 1 μM, NDR2. Format: binding. Particulars: 1000 nM, read-out: Percent Control.
Description: as §2

In the next assay the test system is FLT3(ITD). The assay can be described thus: KINOMEscan at 1 μM, FLT3(ITD). In kind it is binding, human. The settings on record: 1000 nM.
Description: as §2

Assay [5] has as its target T12, PRKCH. As to the kind of experiment: KINOMEscan at 1 μM, PRKCH. In kind it is binding. Particulars: 1000 nM, read-out: Percent Control.
Description: as §2

The next assay addresses T24, VRK2 (Homo sapiens, UniProt Q86Y07).
T24 construct: purchased Eurofins DiscoverX KINOMEscan
As to the kind of experiment: KINOMEscan at 1 μM, VRK2. Format: binding. The settings on record: 1000 nM, read-out: Percent Control.
Description: as §2

The target of the next assay is T25, MKNK2 (Homo sapiens, UniProt Q9HBH9).
T25 construct: purchased Eurofins DiscoverX KINOMEscan
T25 sequence (Q9HBH9 whole entry): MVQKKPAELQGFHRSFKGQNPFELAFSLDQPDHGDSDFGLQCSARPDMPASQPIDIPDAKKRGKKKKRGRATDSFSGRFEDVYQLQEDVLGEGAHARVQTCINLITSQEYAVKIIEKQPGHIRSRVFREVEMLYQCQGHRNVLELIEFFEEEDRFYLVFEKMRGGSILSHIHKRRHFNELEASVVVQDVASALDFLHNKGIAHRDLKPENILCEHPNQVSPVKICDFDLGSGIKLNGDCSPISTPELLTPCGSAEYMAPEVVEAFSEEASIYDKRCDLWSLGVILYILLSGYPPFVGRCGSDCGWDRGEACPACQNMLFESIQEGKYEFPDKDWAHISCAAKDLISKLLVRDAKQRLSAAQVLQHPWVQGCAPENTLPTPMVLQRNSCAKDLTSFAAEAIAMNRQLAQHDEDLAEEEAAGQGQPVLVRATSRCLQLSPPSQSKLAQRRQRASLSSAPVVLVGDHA
The assay can be described thus: KINOMEscan at 1 μM, MKNK2. The settings on record: 1000 nM, read-out: Percent Control. Format: binding.
Description: as §2

For another assay, the target named is T26, HIPK1 (Homo sapiens, UniProt Q86Z02).
T26 construct: purchased Eurofins DiscoverX KINOMEscan
T26 sequence (Q86Z02 whole entry): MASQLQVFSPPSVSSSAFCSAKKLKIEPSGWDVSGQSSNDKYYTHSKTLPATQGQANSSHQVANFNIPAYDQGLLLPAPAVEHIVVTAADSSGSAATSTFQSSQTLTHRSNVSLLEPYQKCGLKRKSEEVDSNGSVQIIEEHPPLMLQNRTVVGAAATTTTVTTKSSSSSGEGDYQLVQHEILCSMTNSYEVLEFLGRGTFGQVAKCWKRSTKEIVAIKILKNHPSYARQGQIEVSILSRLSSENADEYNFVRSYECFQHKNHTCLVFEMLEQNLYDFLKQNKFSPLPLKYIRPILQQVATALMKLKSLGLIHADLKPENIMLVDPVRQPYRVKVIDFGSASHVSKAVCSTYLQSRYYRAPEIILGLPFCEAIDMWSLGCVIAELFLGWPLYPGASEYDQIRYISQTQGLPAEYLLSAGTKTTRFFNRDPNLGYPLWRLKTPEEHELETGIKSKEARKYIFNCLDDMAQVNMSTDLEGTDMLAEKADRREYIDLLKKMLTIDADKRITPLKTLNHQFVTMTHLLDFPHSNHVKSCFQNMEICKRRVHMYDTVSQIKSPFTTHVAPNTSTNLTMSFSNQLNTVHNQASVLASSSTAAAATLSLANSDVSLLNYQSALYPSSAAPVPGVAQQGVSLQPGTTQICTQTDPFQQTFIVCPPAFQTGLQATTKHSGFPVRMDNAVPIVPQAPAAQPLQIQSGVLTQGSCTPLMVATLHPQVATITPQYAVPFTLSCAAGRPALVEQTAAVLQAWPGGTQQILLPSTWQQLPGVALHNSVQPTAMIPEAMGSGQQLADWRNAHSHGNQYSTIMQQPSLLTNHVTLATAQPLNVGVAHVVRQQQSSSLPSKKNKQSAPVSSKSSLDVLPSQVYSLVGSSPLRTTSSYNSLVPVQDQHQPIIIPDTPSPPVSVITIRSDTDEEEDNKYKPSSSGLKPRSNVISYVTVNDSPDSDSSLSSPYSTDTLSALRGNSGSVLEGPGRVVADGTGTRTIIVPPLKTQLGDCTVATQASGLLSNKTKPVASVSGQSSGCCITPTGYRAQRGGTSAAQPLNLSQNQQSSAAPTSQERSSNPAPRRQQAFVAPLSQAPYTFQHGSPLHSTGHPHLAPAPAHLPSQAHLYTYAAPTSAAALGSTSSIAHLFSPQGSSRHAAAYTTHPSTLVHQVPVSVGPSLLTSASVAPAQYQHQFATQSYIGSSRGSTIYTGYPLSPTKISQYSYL
The assay can be described thus: KINOMEscan at 1 μM, HIPK1. Format: binding. Particulars: 1000 nM, read-out: Percent Control.
Description: as §2

The target in another assay is T27, GRK7 (Homo sapiens, UniProt Q8WTQ7).
T27 construct: purchased Eurofins DiscoverX KINOMEscan
T27 sequence (Q8WTQ7 whole entry): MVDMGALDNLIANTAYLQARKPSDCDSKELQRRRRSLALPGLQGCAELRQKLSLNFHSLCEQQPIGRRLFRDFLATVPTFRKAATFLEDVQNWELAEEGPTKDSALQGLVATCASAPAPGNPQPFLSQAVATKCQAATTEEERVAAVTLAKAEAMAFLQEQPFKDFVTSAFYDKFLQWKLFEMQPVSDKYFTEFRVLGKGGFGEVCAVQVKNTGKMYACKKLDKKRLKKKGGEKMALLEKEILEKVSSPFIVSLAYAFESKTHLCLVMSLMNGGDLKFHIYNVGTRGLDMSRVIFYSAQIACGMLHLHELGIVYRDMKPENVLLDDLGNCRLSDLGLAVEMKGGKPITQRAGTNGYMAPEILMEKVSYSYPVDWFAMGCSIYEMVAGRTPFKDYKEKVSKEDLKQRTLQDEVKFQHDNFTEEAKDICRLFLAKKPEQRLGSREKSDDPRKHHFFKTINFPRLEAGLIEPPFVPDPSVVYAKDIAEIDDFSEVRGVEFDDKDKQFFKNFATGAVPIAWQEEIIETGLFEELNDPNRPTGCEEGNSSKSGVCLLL
As to the kind of experiment: KINOMEscan at 1 μM, GRK7. Format: binding. Particulars: 1000 nM, read-out: Percent Control.
Description: as §2

The target of another assay is T28, CAMK1G (Homo sapiens, UniProt Q96NX5).
T28 construct: purchased Eurofins DiscoverX KINOMEscan
The assay can be described thus: KINOMEscan at 1 μM, CAMK1G. Format: binding. Particulars: 1000 nM, read-out: Percent Control.
Description: as §2

The target of the next assay is T29, PRKCE (Homo sapiens, UniProt Q02156).
T29 construct: purchased Eurofins DiscoverX KINOMEscan
The assay can be described thus: KINOMEscan binding assay at 1 μM, PRKCE. Particulars: Compound Concentration 1000 nM; read-out: Percent Control.
Description: as §2

Molecules are shown by their SMILES.

In general, IC50 refers to the concentration that gives 50% inhibition. Read a high IC50 as lower potency.

T19 sequence (Q06418 41-890): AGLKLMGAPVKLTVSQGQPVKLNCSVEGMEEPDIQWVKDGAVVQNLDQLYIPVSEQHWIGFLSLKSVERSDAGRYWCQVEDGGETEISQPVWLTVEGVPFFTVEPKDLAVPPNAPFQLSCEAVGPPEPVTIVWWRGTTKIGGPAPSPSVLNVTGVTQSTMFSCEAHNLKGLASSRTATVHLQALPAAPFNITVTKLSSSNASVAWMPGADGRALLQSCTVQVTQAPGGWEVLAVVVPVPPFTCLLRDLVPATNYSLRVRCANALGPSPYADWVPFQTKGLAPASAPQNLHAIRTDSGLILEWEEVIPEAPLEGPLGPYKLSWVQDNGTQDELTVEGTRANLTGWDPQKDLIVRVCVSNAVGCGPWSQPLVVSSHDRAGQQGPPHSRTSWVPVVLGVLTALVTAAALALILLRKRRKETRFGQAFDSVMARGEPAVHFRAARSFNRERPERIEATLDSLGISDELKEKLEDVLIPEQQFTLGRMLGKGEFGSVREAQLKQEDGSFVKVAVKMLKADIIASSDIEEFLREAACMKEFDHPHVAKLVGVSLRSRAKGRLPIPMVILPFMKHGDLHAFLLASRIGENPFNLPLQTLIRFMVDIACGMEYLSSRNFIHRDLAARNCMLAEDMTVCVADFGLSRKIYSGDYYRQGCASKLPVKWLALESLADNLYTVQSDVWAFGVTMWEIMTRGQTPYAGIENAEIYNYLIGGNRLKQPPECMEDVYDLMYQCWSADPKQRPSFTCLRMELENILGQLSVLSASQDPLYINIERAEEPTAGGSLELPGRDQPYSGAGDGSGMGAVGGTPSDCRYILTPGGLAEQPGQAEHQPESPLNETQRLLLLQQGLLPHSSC
T1 sequence (Q96RR4 165-446 limits assumed): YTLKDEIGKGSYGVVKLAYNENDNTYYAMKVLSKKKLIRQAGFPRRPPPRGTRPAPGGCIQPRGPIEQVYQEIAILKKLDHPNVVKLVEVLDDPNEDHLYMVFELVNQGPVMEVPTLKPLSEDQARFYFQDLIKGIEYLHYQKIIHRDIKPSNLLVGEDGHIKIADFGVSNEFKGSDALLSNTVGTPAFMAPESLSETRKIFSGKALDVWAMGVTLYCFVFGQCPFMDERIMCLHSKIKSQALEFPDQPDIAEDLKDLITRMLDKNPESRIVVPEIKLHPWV

For the compound `Cc1cccc(-c2cnc3occ(-c4ccc(C(=O)O)c(C5CCCC5)c4)c3c2)c1` [Compound 5], the IC50 in assay [1] came out at 270 nM.

For the compound `Cc1cccc(-c2cnc3occ(-c4ccc(C(=O)O)c(C5CCCC5)c4)c3c2)c1` [SGC-CAMKK2-1 (YL-36)], the remaining binding at 1 µM was 75% on CSNK1E; 100% on MST4; 100% at KIT(L576P); 100% at RIOK2; 100% at SRPK2; 100% at MEK2. In addition, the remaining binding at 1 µM at RET(M918T) came to 100%; at ACVR2A, 92%; in assay [2], 100%; on ULK3, 100%; at PRKCH [3], 100%; in assay [4], 100%. Also, the remaining binding at 1 µM at ROCK1 was 100%; at BMPR1A, 100%; on YES, 100%; on CSNK1G3 it was 99%; on TAOK3, 97%; on TYRO3, 100%. Besides, the remaining binding at 1 µM at SIK2 turned out to be 85%; on FLT3(D835V), 100%. Also, the “Percent Control” value in the assay with FLT3(ITD,F691L) amounted to 100%; with FLT3(ITD,D835V), 88%.

In the case of `O=C(O)c1ccc(-c2coc3ncc(-c4ccccc4)cc23)cc1Cl` [SGC-CAMKK2-1N (UNC-YL-83)], the remaining binding at 1 µM at TEC came out at 96%; on NDR2 it was 76%; at PRKCH [5], 94%; on VRK2, 58%; at MKNK2, 67%; at HIPK1, 44%. The remaining binding at 1 µM on GRK7 was 50%; on CAMK1G it was 86%; at PRKCE it was 100%. The “Percent Control” value in the assay on FLT3(ITD) was found to be 81.
